Test results as given in paper PMC8199001, “Design, Synthesis, and Biological Evaluation of Novel 6H-Benzo[c]chromen-6-one Derivatives as Potential Phosphodiesterase II Inhibitors” (International Journal of Molecular Sciences, 2021).
“Also recorded” adds a separate entry of the source.

How the values were obtained:
PDE2 = PDE2 (Homo sapiens, UniProt O00408); test: In vitro PDE2 enzymatic inhibition assay (Bio-cAMP substrate, AlphaScreen detection); type: biochemical; conditions: for PDE2 inhibitory activity (result in words): enzyme level;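 on all read-outs here: enzyme reaction run 0.5 h, then anti-cAMP acceptor and streptavidin donor beads added for 1 h in the dark before plate reading, compounds serially diluted from DMSO stock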
Protocol: Preparation of 1*Rection Buffer: we took 1 mL 10*Rection Buffer, added 9 mL ultra-pure water to swirl and mix well, and put it on ice; preparation of PDE2 solution: 210 μL of 1*Rection Buffer were added into a centrifuge tube, then 30 μL PDE2 were added, mixed well, equal to 8-times dilution, and placed on ice; preparation of compound solution with gradient concentration: DMSO was used as the solvent to prepare 10 mM compound solution, and then diluted with 1*Rection Buffer.
We took 2 μL of the diluted compound solution of each concentration into the microplate, added 4 μL PDE2 solution, numbered them A1–A9, added 2 μL 1*Rection Buffer and 4 μL PDE2 into A10, added 2 μL compound solution and 4 μL 1*Rection Buffer to A11, added 6 μL 1*Rection Buffer to A13, and ensured the three groups are parallel to each other. […] The reaction time was 0.5 h in the microporous plate thermostatic oscillator.
Anti-Camp Alohascreen Acceptor and Streptavidin Coated Donor Bead were purchased from Perkin Elmer Company according to response volume: 1* Immunoassay Buffer 549.32 μL and 3.70 μL anti-cAMP AlohaScreen Acceptor were collected under dark conditions. We took 1.98 μL Streptavidin coated Donor Bead, mixed well, added 15 μL mixture to each well after 1 h reaction, and reacted it in the dark for 1 h. After the reaction, we tested it with multilabel microplate detector.

[1] = in vitro, Bio-cAMP as substrate, mean of at least three experiments

PDE2, sequence (O00408 whole entry): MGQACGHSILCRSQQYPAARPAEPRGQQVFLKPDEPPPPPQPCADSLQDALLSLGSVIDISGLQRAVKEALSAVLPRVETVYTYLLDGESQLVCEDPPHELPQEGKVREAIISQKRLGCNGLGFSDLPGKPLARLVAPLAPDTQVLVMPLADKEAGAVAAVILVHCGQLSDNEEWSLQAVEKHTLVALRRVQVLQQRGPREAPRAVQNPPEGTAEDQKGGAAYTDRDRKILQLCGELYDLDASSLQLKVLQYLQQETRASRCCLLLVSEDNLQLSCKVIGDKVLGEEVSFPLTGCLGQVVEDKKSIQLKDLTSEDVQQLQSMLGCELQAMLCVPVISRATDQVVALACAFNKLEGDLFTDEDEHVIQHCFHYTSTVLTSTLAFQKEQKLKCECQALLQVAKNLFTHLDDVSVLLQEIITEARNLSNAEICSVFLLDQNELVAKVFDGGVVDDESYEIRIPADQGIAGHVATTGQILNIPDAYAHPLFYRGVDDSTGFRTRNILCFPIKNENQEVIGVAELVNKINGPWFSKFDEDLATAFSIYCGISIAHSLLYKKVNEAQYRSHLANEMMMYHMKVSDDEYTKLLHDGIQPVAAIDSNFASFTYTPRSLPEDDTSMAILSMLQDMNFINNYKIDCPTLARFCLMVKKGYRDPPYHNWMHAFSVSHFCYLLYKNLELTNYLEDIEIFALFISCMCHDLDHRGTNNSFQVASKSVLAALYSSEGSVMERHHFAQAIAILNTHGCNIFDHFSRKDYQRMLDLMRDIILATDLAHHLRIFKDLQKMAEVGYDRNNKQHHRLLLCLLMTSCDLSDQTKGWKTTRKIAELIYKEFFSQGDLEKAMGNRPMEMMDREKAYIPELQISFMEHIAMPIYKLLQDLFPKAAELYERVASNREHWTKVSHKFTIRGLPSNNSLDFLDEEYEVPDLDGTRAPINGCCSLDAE

| SMILES | IC50 (PDE2; [1]) | melting point | PDE2 inhibitory activity (result in words) (PDE2) | PDE2 IC50 (PDE2; [1]) |
| --- | --- | --- | --- | --- |
| CCCOc1ccc2c(c1)oc(=O)c1cc(OC)ccc12 [Compound 2c, 8-Methoxy-3-propoxy-6H-benzo[c]chromen-6-one] | > 50 µM | 109.3 to 111.6 °C |  |  |
| CCCOc1ccc2c(c1)oc(=O)c1ccccc12 [Compound 1d, 3-Propoxy-6H-benzo[c]chromen-6-one] | > 50 µM |  |  |  |
| CCCCOc1ccc2c(c1)oc(=O)c1cc(OC)ccc12 [Compound 2e, 3-Butoxy-8-methoxy-6H-benzo[c]chromen-6-one] | 17.8 ± 4.07 µM | 102.5 to 104.4 °C | good PDE2 inhibitory activity |  |
| COc1ccc2c(c1)c(=O)oc1cc(OCCSC)ccc12 [Compound 2i, 8-Methoxy-3-(2-(methylthio)ethoxy)-6H-benzo[c]chromen-6-one] | 14.9 ± 1.78 µM | 110.1 to 111.8 °C | best PDE2 inhibitory activity; also recorded: good PDE2 inhibitory activity |  |
| O=c1oc2cc(OCCO)ccc2c2ccccc12 [Compound 1m, 3-(2-Hydroxyethoxy)-6H-benzo[c]chromen-6-one] | > 50 µM | 125.7 to 126.4 °C |  |  |
| COc1ccc2c(c1)c(=O)oc1cc(Oc3ncccn3)ccc12 [Compound 2v, 8-Methoxy-3-(pyrimidin-2-yloxy)-6H-benzo[c]chromen-6-one] |  | 212.3 to 214 °C |  |  |
| CCC(C)Oc1ccc2c(c1)oc(=O)c1ccccc12 (centres unmarked) [Compound 1e, 3-(Sec-butoxy)-6H-benzo[c]chromen-6-one] | 37.7 ± 4.9 µM | 73.2 to 75.8 °C |  |  |
| COc1ccc2c(c1)c(=O)oc1cc(OCC3CCCO3)ccc12 (centres unmarked) [Compound 2l, 8-Methoxy-3-((tetrahydrofuran-2-yl)methoxy)-6H-benzo[c]chromen-6-one] | > 50 µM | 113.1 to 115.5 °C |  |  |
| O=c1oc2cc(OCCn3cccn3)ccc2c2ccccc12 [Compound 1k, 3-(2-(1H-pyrazol-1-yl)ethoxy)-6H-benzo[c]chromen-6-one] | > 50 µM | 164.3 to 166.6 °C |  |  |
| CCCCCOc1ccc2c(c1)oc(=O)c1ccccc12 [Compound 1g, 3-(pentyloxy)-6H-benzo[c]chromen-6-one] | > 50 µM | 69.4 to 71.8 °C |  |  |
| COc1ccc2c(c1)c(=O)oc1cc(OCCC3OCCO3)ccc12 [Compound 2o, 3-(2-(1,3-Dioxolan-2-yl)ethoxy)-8-methoxy-6H-benzo[c]chromen-6-one] | > 50 µM | 151.6 to 153.2 °C |  |  |
| COc1cc(COc2ccc3c(c2)oc(=O)c2cc(OC)ccc23)cc(OC)c1 [Compound 2s, 3-((3,5-Dimethoxybenzyl)oxy)-8-methoxy-6H-benzo[c]chromen-6-one] | > 50 µM | 153.6 to 155.3 °C |  |  |
| COc1ccc2c(c1)c(=O)oc1cc(OCc3ccc(CO)cc3)ccc12 [Compound 2r, 3-((4-[Hydroxymethyl]benzyl)oxy)-8-methoxy-6H-benzo[c]chromen-6-one] | > 50 µM | 192.4 to 194.6 °C |  |  |
| COc1ccc2c(c1)c(=O)oc1cc(OCC3CCCCC3)ccc12 [Compound 2n, 3-(Cyclohexylmethoxy)-8-methoxy-6H-benzo[c]chromen-6-one] | > 50 µM | 139.8 to 140.1 °C |  |  |
| O=c1oc2cc(OCc3ccc(CO)cc3)ccc2c2ccccc12 [Compound 1t, 3-((4-[Hydroxymethyl]benzyl)oxy)-6H-benzo[c]chromen-6-one] | > 50 µM | 147 to 149.2 °C |  |  |
| CCOc1ccc2c(c1)oc(=O)c1cc(OC)ccc12 [Compound 2b, 3-Ethoxy-8-methoxy-6H-benzo[c]chromen-6-one] | > 50 µM | 141.1 to 143.8 °C |  |  |
| COc1ccc2c(c1)c(=O)oc1cc(OCC3OCCO3)ccc12 [Compound 2m, 3-((1,3-Dioxolan-2-yl)methoxy)-8-methoxy-6H-benzo[c]chromen-6-one] | > 50 µM | 147.9 to 150.1 °C |  |  |
| COc1cc(COc2ccc3c(c2)oc(=O)c2ccccc23)cc(OC)c1 [Compound 1p, 3-((3,5-Dimethoxybenzyl)oxy)-6H-benzo[c]chromen-6-one] | > 50 µM | 133.8 to 135 °C |  |  |
| O=c1oc2cc(OCCN3CCOCC3)ccc2c2ccccc12 [Compound 1u, 3-(2-Morpholinoethoxy)-6H-benzo[c]chromen-6-one] | > 50 µM | 100.8 to 102.8 °C |  |  |
| COc1ccc2c(c1)c(=O)oc1cc(OCC3CCCC3)ccc12 [Compound 2k, 3-(Cyclopentylmethoxy)-8-methoxy-6H-benzo[c]chromen-6-one] | > 50 µM |  |  |  |
| CCOC(=O)COc1ccc2c(c1)oc(=O)c1cc(OC)ccc12 [Compound 2j, Ethyl 2-((8-methoxy-6-oxo-6H-benzo[c]chromen-3-yl)oxy)acetate] | > 50 µM |  |  |  |
| COc1ccc2c(c1)c(=O)oc1cc(OCCO)ccc12 [Compound 2h, 3-(2-Hydroxyethoxy)-8-methoxy-6H-benzo[c]chromen-6-one] | > 50 µM | 166.8 to 168 °C |  |  |
| Cc1cc(COc2ccc3c(c2)oc(=O)c2ccccc23)n(C)n1 [Compound 1q, 3-((1,3-Dimethyl-1H-pyrazol-5-yl)methoxy)-6H-benzo[c]chromen-6-one] | > 50 µM | 165.1 to 167.6 °C |  |  |
| COc1ccc2c(c1)c(=O)oc1cc(OCc3ccccc3F)ccc12 [Compound 2t, 3-((2-Fluorobenzyl)oxy)-8-methoxy-6H-benzo[c]chromen-6-one] |  | 203.6 to 204.9 °C |  | Insoluble |
| CCCCCOc1ccc2c(c1)oc(=O)c1cc(OC)ccc12 [Compound 2f, 8-Methoxy-3-(pentyloxy)-6H-benzo[c]chromen-6-one] | > 50 µM | 73.1 to 75.5 °C |  |  |
| COc1ccc2c(c1)c(=O)oc1cc(OCCn3cccn3)ccc12 [Compound 2w, 3-(2-(1H-pyrazol-1-yl)ethoxy)-8-methoxy-6H-benzo[c]chromen-6-one] | > 50 µM | 159 to 161.1 °C |  |  |
| O=c1oc2cc(OCC3OCCO3)ccc2c2ccccc12 [Compound 1o, 3-((1,3-Dioxolan-2-yl)methoxy)-6H-benzo[c]chromen-6-one] | > 50 µM | 135.6 to 137.8 °C |  |  |
| COc1ccc2c(c1)oc(=O)c1cc(OC)ccc12 [Compound 2a, 3,8-Dimethoxy-6H-benzo[c]chromen-6-one] | > 50 µM |  |  |  |
| CCC(C)Oc1ccc2c(c1)oc(=O)c1cc(OC)ccc12 (centres unmarked) [Compound 2d, 3-(Sec-butoxy)-8-methoxy-6H-benzo[c]chromen-6-one] | > 50 µM | 64.5 to 66.7 °C |  |  |

Other lines, results leading:

| IC50 (PDE2; [1]) | melting point | PDE2 inhibitory activity (result in words) (PDE2) | PDE2 IC50 (PDE2; [1]) | SMILES |
| --- | --- | --- | --- | --- |
| 30.3 ± 7.38 µM | 88.3 to 90.7 °C |  |  | COc1ccc2c(c1)c(=O)oc1cc(OC(C)C)ccc12 [Compound 2g, 3-Isopropoxy-8-methoxy-6H-benzo[c]chromen-6-one] |
| 27.6 ± 2.14 µM |  |  |  | O=c1oc2cc(OCc3cccnc3)ccc2c2ccccc12 [Compound 1r, 3-(Pyridin-3-ylmethoxy)-6H-benzo[c]chromen-6-one] |
| 8.14 ± 0.54 µM | 90.6 to 91.2 °C | good PDE2 inhibitory activity |  | O=c1oc2cc(OCC3CCCC3)ccc2c2ccccc12 [Compound 1s, 3-(Cyclopentylmethoxy)-6H-benzo[c]chromen-6-one] |
| 29.4 ± 5.01 µM | 184.6 to 186.6 °C |  |  | COc1ccc2c(c1)c(=O)oc1cc(OCc3cc(C)nn3C)ccc12 [Compound 2u, 3-((1,3-Dimethyl-1H-pyrazol-5-yl)methoxy)-8-methoxy-6H-benzo[c]chromen-6-one] |
| 25.8 ± 5.45 µM | 58.7 to 59.1 °C |  |  | CC(C)Oc1ccc2c(c1)oc(=O)c1ccccc12 [Compound 1c, 3-Isopropoxy-6H-benzo[c]chromen-6-one] |
| 28.8 ± 7.8 µM |  |  |  | COc1ccc2c(c1)oc(=O)c1ccccc12 [Compound 1a, 3-Methoxy-6H-benzo[c]chromen-6-one] |
| 17.9 ± 1.87 µM | 133 to 134.8 °C | good PDE2 inhibitory activity |  | O=c1oc2cc(OCC3CCOCC3)ccc2c2ccccc12 [Compound 1i, 3-((tetrahydro-2H-pyran-4-yl)methoxy)-6H-benzo[c]chromen-6-one] |
| 27.5 ± 1.49 µM | 82.8 to 84.1 °C |  |  | O=c1oc2cc(OCC3CCCO3)ccc2c2ccccc12 (centres unmarked) [Compound 1n, 3-((Tetrahydrofuran-2-yl)methoxy)-6H-benzo[c]chromen-6-one] |
| 18.7 ± 2.72 µM | 124.7 to 125.8 °C | good PDE2 inhibitory activity |  | CCOC(=O)COc1ccc2c(c1)oc(=O)c1ccccc12 [Compound 1h, ethyl 2-((6-oxo-6H-benzo[c]chromen-3-yl)oxy)acetate] |
| 25.4 ± 5.13 µM | 115.2 to 117.7 °C |  |  | CCOc1ccc2c(c1)oc(=O)c1ccccc12 [Compound 1b, Ethoxy-6H-benzo[c]chromen-6-one] |
| 25.2 ± 6.91 µM | 168.1 to 168.5 °C |  |  | COc1ccc2c(c1)c(=O)oc1cc(OCC3CCOCC3)ccc12 [Compound 2p, 8-Methoxy-3-((tetrahydro-2H-pyran-4-yl)methoxy)-6H-benzo[c]chromen-6-one] |
| 23.3 ± 4.28 µM | 141.7 to 142.5 °C |  |  | COc1ccc2c(c1)c(=O)oc1cc(OCc3ccccc3)ccc12 [Compound 2q, 3-(Benzyloxy)-8-methoxy-6H-benzo[c]chromen-6-one] |
| 19.3 ± 2.38 µM | 174 to 176.6 °C | good PDE2 inhibitory activity |  | O=c1oc2cc(Oc3ncccn3)ccc2c2ccccc12 [Compound 1l, 3-(Pyrimidin-2-yloxy)-6H-benzo[c]chromen-6-one] |
